Experiments:
[1] = target: MARK2/PAR-1Ba (Homo sapiens, UniProt Q7KZI7); test: biochemical; settings: read-out: % enzyme activity, 1 μM; Run 1, Run 2
[2] = target: LRRK2 (Homo sapiens, UniProt Q5S007); test: biochemical; settings: read-out: % enzyme activity, 1 μM; Run 1, Run 2
[3] = target: EGFR (Homo sapiens, UniProt P00533); test: biochemical; settings: read-out: % enzyme activity, 1 μM; Run 1, Run 2
[4] = target: EPHA4 (Homo sapiens, UniProt P54764); test: biochemical; settings: read-out: % enzyme activity, 1 μM; Run 1, Run 2
[5] = target: TLK2 (Homo sapiens, UniProt Q86UE8); test: biochemical; settings: read-out: % enzyme activity, 1 μM; Run 1, Run 2
[6] = target: HIPK2 (Homo sapiens, UniProt Q9H2X6); test: biochemical; settings: read-out: % enzyme activity, 1 μM; Run 1, Run 2
[7] = target: FLT1/VEGFR1 (Homo sapiens, UniProt P17948); settings: 1 μM; Run 1, Run 2
[8] = target: ROCK2 (Homo sapiens, UniProt O75116); test: biochemical; settings: read-out: % enzyme activity, 1 μM; Run 1, Run 2
[9] = target: MLK1/MAP3K9 (Homo sapiens, UniProt P80192); settings: 1 μM; Run 1, Run 2
[10] = target: CK1g2 (Homo sapiens, UniProt P78368); test: biochemical; settings: read-out: % enzyme activity, 1 μM; Run 1, Run 2
[11] = target: T1, CDK9/cyclin K (Homo sapiens, UniProt P50750); test: 375-member kinase panel; type: biochemical; settings: Run 1, Run 2; for % enzyme activity: 1 μM; for remaining activity at 1 µM: read-out: % enzyme activity, 1 μM
T1 construct: purchased Reaction Biology Corporation

[12] = target: T2, RIPK4 (Homo sapiens, UniProt P57078); test: biochemical; settings: read-out: % enzyme activity, 1 μM; Run 1, Run 2
T2 sequence (P57078 1-832): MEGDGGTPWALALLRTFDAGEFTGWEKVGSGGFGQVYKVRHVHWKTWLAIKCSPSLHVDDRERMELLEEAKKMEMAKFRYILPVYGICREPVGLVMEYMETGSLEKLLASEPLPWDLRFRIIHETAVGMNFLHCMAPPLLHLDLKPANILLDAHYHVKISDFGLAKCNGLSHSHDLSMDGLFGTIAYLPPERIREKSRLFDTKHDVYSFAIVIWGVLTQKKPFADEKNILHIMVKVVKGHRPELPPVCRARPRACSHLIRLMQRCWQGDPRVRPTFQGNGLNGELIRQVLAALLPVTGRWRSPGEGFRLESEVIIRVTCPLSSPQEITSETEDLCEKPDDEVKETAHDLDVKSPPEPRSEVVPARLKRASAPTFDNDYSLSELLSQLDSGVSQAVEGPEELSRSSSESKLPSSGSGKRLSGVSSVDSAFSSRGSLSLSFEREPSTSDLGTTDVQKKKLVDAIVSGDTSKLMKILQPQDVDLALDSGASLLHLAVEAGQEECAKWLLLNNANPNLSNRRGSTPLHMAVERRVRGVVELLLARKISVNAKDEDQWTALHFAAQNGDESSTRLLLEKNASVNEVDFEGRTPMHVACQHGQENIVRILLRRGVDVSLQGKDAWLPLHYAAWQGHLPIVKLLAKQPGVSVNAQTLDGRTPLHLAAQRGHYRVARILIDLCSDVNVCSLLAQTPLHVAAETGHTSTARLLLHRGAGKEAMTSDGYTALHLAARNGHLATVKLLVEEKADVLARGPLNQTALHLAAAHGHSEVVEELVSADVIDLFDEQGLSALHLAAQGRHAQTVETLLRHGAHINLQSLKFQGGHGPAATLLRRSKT

[13] = target: T3, TNK1 (Homo sapiens, UniProt Q13470); settings: 1 μM; Run 1, Run 2
T3 sequence (Q13470 1-666): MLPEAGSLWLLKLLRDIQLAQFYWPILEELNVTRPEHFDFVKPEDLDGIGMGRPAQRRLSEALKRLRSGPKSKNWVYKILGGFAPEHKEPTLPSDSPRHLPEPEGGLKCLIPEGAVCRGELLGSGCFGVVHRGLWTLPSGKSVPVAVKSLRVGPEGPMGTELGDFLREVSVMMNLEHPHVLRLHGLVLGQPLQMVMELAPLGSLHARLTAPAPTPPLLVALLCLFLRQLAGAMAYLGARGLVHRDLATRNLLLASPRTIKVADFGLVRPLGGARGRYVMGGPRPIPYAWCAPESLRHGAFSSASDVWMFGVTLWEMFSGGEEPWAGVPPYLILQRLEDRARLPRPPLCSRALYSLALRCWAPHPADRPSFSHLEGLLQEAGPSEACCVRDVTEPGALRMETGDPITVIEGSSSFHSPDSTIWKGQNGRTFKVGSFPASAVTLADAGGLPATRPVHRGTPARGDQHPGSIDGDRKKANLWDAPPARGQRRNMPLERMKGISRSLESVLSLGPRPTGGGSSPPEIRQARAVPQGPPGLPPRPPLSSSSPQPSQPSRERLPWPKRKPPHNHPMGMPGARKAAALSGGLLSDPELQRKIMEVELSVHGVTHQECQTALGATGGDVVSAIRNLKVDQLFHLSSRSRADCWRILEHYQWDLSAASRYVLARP

[14] = target: T4, ERK7/MAPK15 (Homo sapiens, UniProt Q8TD08); test: biochemical; settings: read-out: % enzyme activity, 1 μM; Run 1, Run 2
T4 sequence (Q8TD08 1-544): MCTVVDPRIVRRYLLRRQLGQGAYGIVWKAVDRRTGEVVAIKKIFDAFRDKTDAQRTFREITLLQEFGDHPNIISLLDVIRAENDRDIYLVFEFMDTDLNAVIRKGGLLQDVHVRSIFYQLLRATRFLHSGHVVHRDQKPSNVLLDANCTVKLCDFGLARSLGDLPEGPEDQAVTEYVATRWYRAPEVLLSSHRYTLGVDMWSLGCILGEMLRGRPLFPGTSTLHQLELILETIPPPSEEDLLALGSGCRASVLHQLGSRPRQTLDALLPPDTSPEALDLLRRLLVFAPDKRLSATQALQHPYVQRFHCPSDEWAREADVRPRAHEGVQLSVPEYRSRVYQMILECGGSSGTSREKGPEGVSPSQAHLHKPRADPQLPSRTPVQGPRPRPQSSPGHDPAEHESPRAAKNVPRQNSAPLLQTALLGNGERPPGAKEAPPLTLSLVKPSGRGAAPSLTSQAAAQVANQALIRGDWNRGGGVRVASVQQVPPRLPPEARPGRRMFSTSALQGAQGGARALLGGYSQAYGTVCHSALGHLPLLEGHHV

T1 sequence (P50750 whole entry): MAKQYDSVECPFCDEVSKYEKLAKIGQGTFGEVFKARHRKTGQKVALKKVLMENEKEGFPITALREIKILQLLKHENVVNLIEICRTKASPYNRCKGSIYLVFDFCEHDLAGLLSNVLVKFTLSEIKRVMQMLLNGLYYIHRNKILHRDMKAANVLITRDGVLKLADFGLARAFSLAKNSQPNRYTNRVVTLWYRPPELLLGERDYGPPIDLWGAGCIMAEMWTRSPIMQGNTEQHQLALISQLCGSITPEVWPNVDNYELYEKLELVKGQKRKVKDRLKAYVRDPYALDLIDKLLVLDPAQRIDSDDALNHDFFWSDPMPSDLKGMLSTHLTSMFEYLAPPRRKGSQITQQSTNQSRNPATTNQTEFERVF
T1 sequence (O75909 whole entry partner): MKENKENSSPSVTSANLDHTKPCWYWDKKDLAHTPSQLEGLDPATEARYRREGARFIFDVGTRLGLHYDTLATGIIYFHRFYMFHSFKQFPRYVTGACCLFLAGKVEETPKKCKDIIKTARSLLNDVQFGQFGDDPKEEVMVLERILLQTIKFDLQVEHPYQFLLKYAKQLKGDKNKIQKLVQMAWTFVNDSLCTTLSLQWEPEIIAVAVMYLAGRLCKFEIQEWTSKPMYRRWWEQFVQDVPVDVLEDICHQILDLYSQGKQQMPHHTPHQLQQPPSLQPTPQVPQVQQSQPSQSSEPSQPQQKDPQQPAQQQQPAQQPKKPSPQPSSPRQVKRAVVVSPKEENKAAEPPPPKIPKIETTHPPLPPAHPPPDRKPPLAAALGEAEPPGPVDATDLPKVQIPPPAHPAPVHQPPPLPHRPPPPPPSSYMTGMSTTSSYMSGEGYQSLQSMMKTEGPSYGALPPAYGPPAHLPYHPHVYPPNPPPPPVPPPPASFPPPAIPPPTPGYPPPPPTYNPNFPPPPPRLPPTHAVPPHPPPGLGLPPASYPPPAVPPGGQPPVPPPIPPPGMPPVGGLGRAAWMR
ROCK2, sequence (O75116 whole entry): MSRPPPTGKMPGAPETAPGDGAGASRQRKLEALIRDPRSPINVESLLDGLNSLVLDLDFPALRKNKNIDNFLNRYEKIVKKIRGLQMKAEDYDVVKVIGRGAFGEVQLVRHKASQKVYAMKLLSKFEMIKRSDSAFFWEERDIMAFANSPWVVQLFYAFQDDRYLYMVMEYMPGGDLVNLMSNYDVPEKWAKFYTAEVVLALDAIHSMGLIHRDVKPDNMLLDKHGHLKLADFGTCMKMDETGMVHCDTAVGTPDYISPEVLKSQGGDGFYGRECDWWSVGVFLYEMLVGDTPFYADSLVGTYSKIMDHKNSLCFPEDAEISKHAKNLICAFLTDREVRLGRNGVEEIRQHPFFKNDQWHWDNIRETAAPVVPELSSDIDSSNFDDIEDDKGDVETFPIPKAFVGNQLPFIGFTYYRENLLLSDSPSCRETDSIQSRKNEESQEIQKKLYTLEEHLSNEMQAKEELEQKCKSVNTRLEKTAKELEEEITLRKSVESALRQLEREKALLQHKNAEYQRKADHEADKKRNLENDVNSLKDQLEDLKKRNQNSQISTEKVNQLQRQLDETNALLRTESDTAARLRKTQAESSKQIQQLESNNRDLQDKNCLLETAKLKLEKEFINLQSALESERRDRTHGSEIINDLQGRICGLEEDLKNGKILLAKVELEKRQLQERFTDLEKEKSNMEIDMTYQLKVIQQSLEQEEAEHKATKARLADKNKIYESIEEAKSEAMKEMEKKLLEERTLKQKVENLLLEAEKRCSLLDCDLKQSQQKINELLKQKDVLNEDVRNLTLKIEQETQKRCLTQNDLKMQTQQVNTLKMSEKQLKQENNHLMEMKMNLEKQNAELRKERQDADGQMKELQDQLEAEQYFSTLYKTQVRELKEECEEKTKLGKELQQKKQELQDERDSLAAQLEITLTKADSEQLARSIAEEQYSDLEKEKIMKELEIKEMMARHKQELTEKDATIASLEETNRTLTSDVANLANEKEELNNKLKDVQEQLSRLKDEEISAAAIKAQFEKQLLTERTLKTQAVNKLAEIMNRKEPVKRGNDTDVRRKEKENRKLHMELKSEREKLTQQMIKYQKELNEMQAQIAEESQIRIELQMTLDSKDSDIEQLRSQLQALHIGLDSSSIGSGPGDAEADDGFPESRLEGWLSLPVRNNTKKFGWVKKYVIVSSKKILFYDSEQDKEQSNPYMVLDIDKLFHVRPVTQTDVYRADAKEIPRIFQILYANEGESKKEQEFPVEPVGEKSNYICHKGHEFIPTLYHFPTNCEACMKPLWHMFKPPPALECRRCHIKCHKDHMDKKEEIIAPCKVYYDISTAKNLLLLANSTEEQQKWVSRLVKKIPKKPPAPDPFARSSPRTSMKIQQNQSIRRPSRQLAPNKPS
MLK1/MAP3K9, sequence (P80192 whole entry): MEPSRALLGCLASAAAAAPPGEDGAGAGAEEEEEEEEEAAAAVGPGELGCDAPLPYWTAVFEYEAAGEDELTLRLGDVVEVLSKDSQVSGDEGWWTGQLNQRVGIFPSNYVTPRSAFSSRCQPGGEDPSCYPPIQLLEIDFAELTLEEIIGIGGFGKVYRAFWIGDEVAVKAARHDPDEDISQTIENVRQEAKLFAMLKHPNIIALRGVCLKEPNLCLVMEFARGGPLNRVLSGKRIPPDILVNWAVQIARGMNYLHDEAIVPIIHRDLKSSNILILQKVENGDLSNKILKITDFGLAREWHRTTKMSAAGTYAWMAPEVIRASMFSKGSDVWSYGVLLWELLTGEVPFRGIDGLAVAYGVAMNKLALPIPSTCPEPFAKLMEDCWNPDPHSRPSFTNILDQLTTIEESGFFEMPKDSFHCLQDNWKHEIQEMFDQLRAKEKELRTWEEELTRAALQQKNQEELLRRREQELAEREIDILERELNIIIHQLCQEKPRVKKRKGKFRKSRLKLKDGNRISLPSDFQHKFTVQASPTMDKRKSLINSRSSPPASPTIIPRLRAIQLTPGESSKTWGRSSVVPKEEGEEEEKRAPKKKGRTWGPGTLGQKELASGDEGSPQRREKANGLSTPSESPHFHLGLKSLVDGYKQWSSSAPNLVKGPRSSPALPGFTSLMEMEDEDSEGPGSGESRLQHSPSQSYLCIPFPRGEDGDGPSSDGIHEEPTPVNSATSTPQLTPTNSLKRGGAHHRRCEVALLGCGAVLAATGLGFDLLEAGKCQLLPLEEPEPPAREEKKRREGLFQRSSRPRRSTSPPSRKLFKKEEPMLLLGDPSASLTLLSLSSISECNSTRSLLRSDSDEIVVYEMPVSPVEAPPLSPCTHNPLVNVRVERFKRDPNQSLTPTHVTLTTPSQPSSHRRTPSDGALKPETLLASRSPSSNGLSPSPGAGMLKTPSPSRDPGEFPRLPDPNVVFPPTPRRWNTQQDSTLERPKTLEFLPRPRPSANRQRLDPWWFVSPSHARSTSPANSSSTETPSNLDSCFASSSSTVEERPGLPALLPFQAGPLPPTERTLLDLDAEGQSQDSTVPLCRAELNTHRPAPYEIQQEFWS
EGFR, sequence (P00533 25-1210): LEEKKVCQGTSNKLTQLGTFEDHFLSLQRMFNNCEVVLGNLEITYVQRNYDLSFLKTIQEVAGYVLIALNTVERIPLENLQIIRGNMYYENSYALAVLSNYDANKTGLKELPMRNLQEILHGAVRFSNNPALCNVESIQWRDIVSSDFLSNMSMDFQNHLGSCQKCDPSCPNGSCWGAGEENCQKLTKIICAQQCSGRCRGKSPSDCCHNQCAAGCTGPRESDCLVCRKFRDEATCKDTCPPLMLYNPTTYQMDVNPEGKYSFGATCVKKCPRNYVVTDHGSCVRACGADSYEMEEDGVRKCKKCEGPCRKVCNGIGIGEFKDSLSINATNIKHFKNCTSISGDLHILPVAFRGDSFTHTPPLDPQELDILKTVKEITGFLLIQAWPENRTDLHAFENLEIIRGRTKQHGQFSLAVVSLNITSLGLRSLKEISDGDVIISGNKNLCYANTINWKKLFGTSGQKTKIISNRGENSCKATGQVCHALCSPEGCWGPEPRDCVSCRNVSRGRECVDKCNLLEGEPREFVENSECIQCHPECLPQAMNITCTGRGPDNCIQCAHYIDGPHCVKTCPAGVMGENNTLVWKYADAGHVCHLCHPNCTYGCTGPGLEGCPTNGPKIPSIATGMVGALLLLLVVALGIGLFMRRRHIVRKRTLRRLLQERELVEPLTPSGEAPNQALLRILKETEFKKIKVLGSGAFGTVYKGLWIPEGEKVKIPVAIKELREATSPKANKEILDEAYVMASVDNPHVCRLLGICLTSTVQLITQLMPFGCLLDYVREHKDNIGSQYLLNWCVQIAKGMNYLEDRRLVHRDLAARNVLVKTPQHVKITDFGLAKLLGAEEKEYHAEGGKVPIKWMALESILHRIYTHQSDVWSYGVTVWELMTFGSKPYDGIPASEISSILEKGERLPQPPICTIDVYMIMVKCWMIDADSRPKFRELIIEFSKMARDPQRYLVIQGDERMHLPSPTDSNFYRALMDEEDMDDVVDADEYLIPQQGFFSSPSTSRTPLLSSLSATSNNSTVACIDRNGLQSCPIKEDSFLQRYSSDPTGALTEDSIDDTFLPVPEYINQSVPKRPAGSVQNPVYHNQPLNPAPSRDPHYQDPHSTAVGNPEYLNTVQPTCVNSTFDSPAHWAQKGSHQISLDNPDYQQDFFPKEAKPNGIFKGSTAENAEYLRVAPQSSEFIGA
CK1g2, sequence (P78368 whole entry): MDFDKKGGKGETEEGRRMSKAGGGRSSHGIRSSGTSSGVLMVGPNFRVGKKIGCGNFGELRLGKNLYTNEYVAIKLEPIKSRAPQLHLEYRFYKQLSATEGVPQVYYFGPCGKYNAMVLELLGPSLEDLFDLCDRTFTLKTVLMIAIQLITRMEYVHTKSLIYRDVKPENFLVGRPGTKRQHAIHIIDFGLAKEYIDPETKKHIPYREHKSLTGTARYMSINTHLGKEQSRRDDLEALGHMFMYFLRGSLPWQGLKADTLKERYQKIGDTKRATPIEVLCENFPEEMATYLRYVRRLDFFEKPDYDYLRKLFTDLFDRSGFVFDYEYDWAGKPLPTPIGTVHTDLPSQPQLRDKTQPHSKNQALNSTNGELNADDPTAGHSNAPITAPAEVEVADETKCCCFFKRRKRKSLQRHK

COc1cc(-c2cncc(-c3ccc(N4CCN(C)CC4)cc3)c2C)cc(F)c1C(N)=O [Compound 26a, 2-Fluoro-6-methoxy-4-(4-methyl-5-(4-(4-methylpiperazin-1-yl)phenyl)pyridin-3-yl)benzamide]
remaining activity at 1 µM [1]: 92.8% | remaining activity at 1 µM [2]: 60.1% | remaining activity at 1 µM [3]: 96% | remaining activity at 1 µM [4]: 95.3% | remaining activity at 1 µM [5]: 96.6% | remaining activity at 1 µM [6]: 99.8% | % enzyme activity [7]: 105.29% | remaining activity at 1 µM [8]: 116% | % enzyme activity [9]: 110.44% | remaining activity at 1 µM [10]: 78% | % enzyme activity [11]: 96.95% | remaining activity at 1 µM [11]: 97.5% | remaining activity at 1 µM [12]: 75.5% | % enzyme activity [13]: 99.53% | remaining activity at 1 µM [14]: 86.8%

COc1cc(-c2cncc(-c3ccc(N4C[C@@H](C)N(C)[C@@H](C)C4)cc3)c2C)cc(F)c1C(N)=O [Compound 26c, 2-Fluoro-6-methoxy-4-(4-methyl-5-(4-((3R,5S)-3,4,5-trimethylpiperazin-1-yl)phenyl)pyridin-3-yl)benzamide]
remaining activity at 1 µM [1]: 104% | remaining activity at 1 µM [2]: 78.3% | remaining activity at 1 µM [3]: 95.3% | remaining activity at 1 µM [4]: 99.3% | remaining activity at 1 µM [5]: 93.3% | remaining activity at 1 µM [6]: 103% | % enzyme activity [7]: 104.04% | remaining activity at 1 µM [8]: 101% | % enzyme activity [9]: 98.95% | remaining activity at 1 µM [10]: 87% | % enzyme activity [11]: 102.30% | remaining activity at 1 µM [11]: 106% | remaining activity at 1 µM [12]: 86.1% | % enzyme activity [13]: 98.22% | remaining activity at 1 µM [14]: 98.3%

Source: paper PMC8213057, “Targeting ALK2: An Open Science Approach to Developing Therapeutics for the Treatment of Diffuse Intrinsic Pontine Glioma” (Journal of Medicinal Chemistry, 2020)
